Experimental data published in patent US5922554A, “Inhibition of cellular uptake of cholesterol” (The Regents of the University of California, priority 1996, dated 1999).

Assays:
fibroblast monolayers [1] = assay: Influx/uptake of ^3 H-FC (free cholesterol) from labeled LDL (or plasma, HDL) into normal fibroblast monolayers; type: cell-based, human; parameters: Emax: dose or concentration left out as unconfirmed; conditions: for effect on uptake of ^3 H-FC from LDL: up to 60 μM; for FC Influx: LDL-FC 60.2 μg ml^-1, 60 min, 37° C., 30 min preequilibration with inhibitor at: Na-azide 1 mM, NH4-vanadate 1 mM, NEM 2 mM, KNO3 50 mM, progesterone 30 μM, forskolin 30 μM, IBMX 100 μM, chloroquine 20 μM; for effect on LDL FC uptake: Table 3 conditions; for FC Influx, % (PBS only = 100.0): same concentrations and conditions as Table 3 FC influx, 60 min; for inhibition at higher concentration (words): up to 100 μM
fibroblast monolayers [2] = assay: Transfer of intracellular ^3 H-FC to the cell surface (cholesterol oxidase accessibility); type: cell-based, human; conditions: for % transfer of intracellular ^3 H-FC to the cell surface, relative to rate in absence of inhibitor: NEM 2 mM, KNO3 50 mM, nocodazole, brefeldin A, vinblastine 40 μM, pulse labeled 2 min 31° C., then 30 min 31° C.
Description: This assay utilized the finding (see Example 1) that only FC in the caveolar fraction of the plasma membrane fraction was modified by cholesterol oxidase in unfixed fibroblast monolayers.
The rate at which intracellular LDL-derived ^3 H-FC became accessible at the cell surface was measured as follows. Cell monolayers were labeled with ^3 H-FC LDL under the conditions shown for each experiment. Unbound and adsorbed LDL were removed as described above. In some experiments metabolic inhibitors of different transport steps were then added for 30 min at 15° C. […] Cholesterol oxidase (Boehringer-Manheim, Indianapolis, Ind., USA) was added in PBS to a final concentration of 1 U ml^-1. Incubation was for 4 h at 0° C. The cells were washed with ice-cold PBS, and extracted with 0. 1N NAOH. Cell total lipid was extracted with chloroform-methanol (1:1 v/v). […] .
Fibroblast monolayers were prelabeled with FC-labeled LDL for 2 min at 31° C. Medium and surface-bound labeled LDL were removed as described above. The cells were incubated with inhibitors of intracellular transport for 30 min at 15° C. Movement of FC label to the cell surface remained negligible (FIG. 11).
^a Relative to rate in the absence of inhibitor. Values are expressed

fibroblasts = conditions: Hokland et al. 1993; cited from earlier work
[3] = test system: LDL-receptor deficient cells (GM 2000 line); assay: Influx of ^3 H-FC from LDL into LDL-receptor-deficient fibroblasts (GM 2000)
fibroblast monolayers [4] = assay: D2O-Ficoll density gradient fractionation of ^3 H-FC labeled fibroblasts; type: cell-based, human; conditions: clathrin fraction d 1.12 g ml^-1; NEM 2 mM
Description: Early endosomal vesicles were labeled with LDL-derived ^3 H-FC by a modification of procedures described by Woodman & Warren (1991) J. Cell Biol., 112:1133-1141. Fibroblast monolayers in 10 cm dishes were washed in ice-cold PBS. The cells were labeled by incubation (2 h, 4° C.) with ^3 H-FC LDL. The monolayers were washed in PBS and brought to 31° C. for 0-15 min. The cells were then quickly chilled on ice, and cold unlabeled LDL was added (15 min, 4° C.) to displace any remaining surface-bound labeled LDL and all subsequent steps were carried out at 0-4° C.
Cells from three 10 cm dishes were used for each gradient. Monolayers were washed with 140 mM sucrose, 0.5 mM MgCl2, 1 mM EGTA, 20 mM 2-[N-morpholino]ethanesulfonic acid (MES), 70 mM potassium acetate, pH 6.6 (`vesicle buffer`) (Woodman & Warren, supra.). The cells were scraped from the dishes. Dithiothreitol (1 mm) and protease inhibitors (PMSF, 200 μg ml^-1; benzamidine 0.5 mM; soybean trypsin inhibitor 10 μg ml^-1; leupeptin 1 μg ml^-1) were added. The cells were broken with a Dounce homogenizer (15 strokes) and the homogenate centrifuged at 500× g for 5 min. Ribonuclease A (50 μg ml^-1) was added. After 30 min a second centrifugation was carried out (7000× g, 30 min). Supernatant (~2 ml) was layered on a 10 ml continuous gradient of 2% Ficoll-9% D2 O to 20% Ficoll-90% D2 O in vesicle buffer containing 1 mM dithiothreitol. Centrifugation in a Beckman SW41 rotor was carried out at 80,000× g for 16 h. Fractions (~0.6 ml) were collected dropwise and the distribution of FC label determined. Because of slight variation in fraction size between gradients, data were normalized to 20 fractions for comparison between experiments. Solution density was determined gravimetrically using 100 μl portions of each fraction. The density of a given fraction was reproducible ±0.5% between experiments.
Fibroblast monolayers were incubated with ^3 H-FC LDL for 30 min at 31° C. to predominantly label the intermediate density vesicle fraction. Cell surface LDL was removed as described above. […]

fibroblast monolayers [5] = assay: Cholesterol efflux from ^3 H-cholesterol labeled fibroblasts to plasma; type: cell-based, human
Description: Fibroblast monolayers were equilibrated with ^3 H-FC-labeled native plasma or with isolated ^3 H-labeled LDL, as specified for each experiment. Following incubation, the dishes were washed with albumin-complete PBS and then (×4) with complete PBS. They were then incubated for 3 min with unlabeled plasma or lipoprotein fractions and the rate of appearance of radioactivity in the medium determined. Samples of medium (100 μl) were immediately chilled in ice water and centrifuged (10 min, 2000× g) at 0-2° C. ^3 H-cholesterol radioactivity in the supernatant was either assayed directly, or fractionated by agarose gel electrophoresis. FC efflux was linear as previously reported (Kawano et al., Biochemistry, 32: 5025-5028 (1993)).
For electrophoresis, 20 μl portions of labeled medium were added to strips of 0.75% w/v agarose in 0.025M barbital buffer (pH 8.6) and separated as previously described (Fielding et al., Biochemistry, 30: 8551-8557 (1991)). 2.5 mm gel fractions were then collected, and radioactivity measured. The location of major lipoprotein classes was determined from strips run simultaneously with whole native plasma equilibrated (60 min, 37° C.) with ^3 H-FC.
^c Percent loss of label from cells prelabeled (10 min, 37° C.

[6] = Homo sapiens, Fibroblast, read-out: Influx of 3H-FC, % Remaining

Compound	inhibition of LDL-FC pathway (summary, words) (fibroblast monolayers [1])	transport of intracellular ^3 H-FC to the cell surface/caveolae (fibroblast monolayers [2])	FC Influx (fibroblast monolayers [1])	effect on LDL FC uptake (fibroblast monolayers [1])	FC Influx, % (PBS only = 100.0) (fibroblast monolayers [1])	also measured
CC(=O)O[C@H]1C(=O)[C@@]2(C)[C@H]([C@H](OC(=O)c3ccccc3)[C@]3(O)C[C@H](OC(=O)[C@H](O)[C@@H](NC(=O)c4ccccc4)c4ccccc4)C(C)=C1C3(C)C)[C@]1(OC(C)=O)CO[C@@H]1C[C@@H]2O [taxol]	not inhibited					effect on uptake of ^3 H-FC from LDL (fibroblast monolayers [1]): without effect
COC(=O)Nc1nc2ccc(C(=O)c3cccs3)cc2[nH]1 [Nocodazole]	not inhibited	reduced				transport of the vesicles to the plasma membrane (summary, words) (fibroblast monolayers [2]): inhibited; % transfer of intracellular ^3 H-FC to the cell surface, relative to rate in absence of inhibitor (fibroblast monolayers [2]): 40 ± 1%; activity at 60 µM (fibroblast monolayers [1]; Homo sapiens, Fibroblast, cytochalasin D 40 μM, monensin 40 μM, nocodazole 60 μM, bafilomycin A1 45 μM, means ±1 SD of three experiments, read-out: Influx of 3H-FC, % Remaining): 101 ± 6%; effect on uptake of ^3 H-FC from LDL (fibroblast monolayers [1]): without effect
CC(C)Cn1c(=O)n(C)c(=O)c2[nH]cnc21 [IBMX, isobutyl methylxanthine]	not inhibited		1.46 ± 0.04 µg	no effect	110.8%	transfer of newly-synthesized cholesterol to plasma membrane (fibroblasts): stimulated; LDL-FC influx (discussion, words) (fibroblast monolayers [1]): unaffected
[N-]=[N+]=[N-].[Na+] [Na-azide]	not inhibited		1.18 ± 0.02 µg	without effect	89.5%	
CC[C@@]1([C@@H]2O[C@@H]([C@H]3O[C@@](O)(CO)[C@H](C)C[C@@H]3C)C[C@@H]2C)CC[C@H]([C@]2(C)CC[C@]3(C[C@H](O)[C@@H](C)[C@@H]([C@@H](C)[C@@H](OC)[C@H](C)C(=O)O)O3)O2)O1 [Monensin]	inhibited			effective in reducing the selective uptake of FC from LDL		selective uptake of FC from LDL, LDL-receptor deficient cells ([3]; GM2000): Comparable results; inhibition at higher concentration (words) (fibroblast monolayers [1]): no increase in inhibition; FC label in density gradient (fibroblast monolayers [4]): A similar result
sodium heparin						inhibition of influx of FC from LDL ([3]; heparin 0.1 mg/ml, GM 2000 cells): Approximately 80%; inhibition of influx of FC from LDL (fibroblast monolayers [1]; heparin 0.1 mg/ml, normal cells, LDL 150 μg FC ml^-1, 10 min 37° C.): Approximately 80%
[NH4+].[O]=[V](=[O])[O-] [NH4 -vanadate]	not inhibited		1.36 ± 0.08 µg	without effect	103.2%	
C=C1C(C)C2C(Cc3ccccc3)NC(=O)C23C(OC(C)=O)/C=C/C(C)(O)C(=O)C(C)CC=CC3C1O (stereo not shown) [Cytochalasin D]	inhibited	no effect				activity at 40 µM (fibroblast monolayers [1]; [6]): 38 ± 2%; inhibition at 40 µM (fibroblast monolayers [1]; Homo sapiens, Fibroblast, read-out: reduction of uptake of ^3 H-FC from LDL (average)): 65%; inhibition at higher concentration (words) (fibroblast monolayers [1]; listed as Cytochalasin): No greater inhibition; inhibition at higher concentration (words) (fibroblast monolayers [1]; listed as cytochalasin D): no increase in inhibition; FC label in density gradient (fibroblast monolayers [4]): A similar result
CC[C@]1(O)C[C@@H]2CN(CCc3c([nH]c4ccccc34)[C@@](C(=O)OC)(c3cc4c(cc3OC)N(C)[C@H]3[C@@](O)(C(=O)OC)[C@H](OC(C)=O)[C@]5(CC)C=CCN6CC[C@]43[C@@H]65)C2)C1 [Vinblastine]	not inhibited	unaffected				inhibition at 40 µM (fibroblast monolayers [2]; Homo sapiens, Fibroblast, read-out: % transfer of intracellular ^3 H-FC to the cell surface, relative to rate in absence of inhibitor): 100 ± 2%; effect on uptake of ^3 H-FC from LDL (fibroblast monolayers [1]): without effect
C=C[C@@]1(C)CC(=O)[C@]2(O)[C@@]3(C)[C@@H](O)CCC(C)(C)[C@@H]3[C@H](O)[C@H](OC(C)=O)[C@@]2(C)O1 [Forskolin]	not inhibited		1.39 ± 0.01 µg	no effect	105.3%	transfer of newly-synthesized cholesterol to plasma membrane (fibroblasts): stimulated; LDL-FC influx (discussion, words) (fibroblast monolayers [1]): unaffected
[3H]C1C([3H])[C@@]2(C)C(=CC[C@H]3[C@@H]4CC[C@H]([C@H](C)CCCC(C)C)[C@@]4(C)CC[C@@H]32)C[C@H]1O (stereo partly shown) [^3 H-FC, 1,2-^3 H-cholesterol]						cholest-4-en-3-one fraction of total label (fibroblast monolayers [2]; 0-4° C., 4 experiments): 0.8±0.2%; t1/2 of increase in oxidized FC (transfer to cell surface) (fibroblast monolayers [2]; 31° C., FIG. 11): ~ 2 min; internalized FC localized to oxidase-sensitive fraction (fibroblast monolayers [2]; after 2 min pulse label, 31° C.): about 40%
C[C@H]1CCC/C=C/[C@@H]2C[C@H](O)C[C@H]2[C@H](O)/C=C/C(=O)O1 [Brefeldin A]	not inhibited	unaffected				% transfer of intracellular ^3 H-FC to the cell surface, relative to rate in absence of inhibitor (fibroblast monolayers [2]): 95 ± 5%; effect on uptake of ^3 H-FC from LDL (fibroblast monolayers [1]): without effect
O=[N+]([O-])[O-].[K+] [KNO3]	inhibited	inhibited the return of FC to the cell surface, but less effectively than did nocodazole	0.28 ± 0.02 µg		21.0%	% transfer of intracellular ^3 H-FC to the cell surface, relative to rate in absence of inhibitor (fibroblast monolayers [2]): 70 ± 4%; time course of inhibition of ^3 H-FC transfer compared with NEM (FIG. 8) (fibroblast monolayers [1]; 50 mM KNO3, data not shown): comparable time course; inhibition of uptake of free cholesterol from LDLs (summary) (fibroblast monolayers [1]; NEM or KNO3, Example 1, FIG. 8): > 80%; initial rate of efflux of FC from prelabeled cells to plasma (fibroblast monolayers [5]): increased several-fold
CO/C1=C\C(C)=C\[C@@H](C)[C@@H](O)[C@@H](C)C/C(C)=C/C=C/[C@H](OC)[C@@H]([C@@H](C)[C@@H](O)[C@H](C)[C@@]2(O)C[C@@H](O)[C@H](C)[C@@H](C(C)C)O2)OC1=O [Bafilomycin A1]	inhibited					activity at 45 µM (fibroblast monolayers [1]; [6]): 70 ± 4%; Emax (fibroblast monolayers [1]; Homo sapiens, Fibroblast, read-out: maximal effect on uptake of FC from LDL): 30%
CCN(CC)CCCC(C)Nc1ccnc2cc(Cl)ccc12 (stereo not shown) [Chloroquine]			1.34 ± 0.04 µg		102.3%	LDL-FC influx (discussion, words) (fibroblast monolayers [1]): no effect
